Patent publication US11566022B2, “3-(5-methoxy-1-oxoisoindolin-2-yl)piperidine-2,6-dione derivatives and uses thereof” (NOVARTIS AG, priority 2019, dated 2023)
Like-named read-outs stand apart in the source and are kept apart here.

Legend:
HiBit-WIZ fusion protein = HiBit-WIZ fusion protein (Homo sapiens, UniProt O95785+Q96SW2); test: Quantification of WIZ protein levels in HiBit tag fusion protein assay (WIZ HiBit assay in 293T cells); assay type: cell-based; design: Dmax: dose or concentration left out as unconfirmed; conditions: for remaining activity at up to 25 µM: read-out: WIZ Amax; for DC50: read-out: WIZ AC50
[1] = SCD, current standard of care; cited from earlier work
[2] = HEK-293T, 100 minus Amax, 293T cells, read-out: % degradation of WIZ (100-Amax)
[3] = HEK-293T, DMSO-normalized, curve-fitted percentage of WIZ-HiBit remaining at 25 uM, 293T cells
[4] = WIZ HiBit assay in 293T cells, 10-point, 5-fold dose response, highest concentration 25 μM, about 18 hours

HiBit-WIZ fusion protein, sequence (O95785 whole entry, the tested form may be a part): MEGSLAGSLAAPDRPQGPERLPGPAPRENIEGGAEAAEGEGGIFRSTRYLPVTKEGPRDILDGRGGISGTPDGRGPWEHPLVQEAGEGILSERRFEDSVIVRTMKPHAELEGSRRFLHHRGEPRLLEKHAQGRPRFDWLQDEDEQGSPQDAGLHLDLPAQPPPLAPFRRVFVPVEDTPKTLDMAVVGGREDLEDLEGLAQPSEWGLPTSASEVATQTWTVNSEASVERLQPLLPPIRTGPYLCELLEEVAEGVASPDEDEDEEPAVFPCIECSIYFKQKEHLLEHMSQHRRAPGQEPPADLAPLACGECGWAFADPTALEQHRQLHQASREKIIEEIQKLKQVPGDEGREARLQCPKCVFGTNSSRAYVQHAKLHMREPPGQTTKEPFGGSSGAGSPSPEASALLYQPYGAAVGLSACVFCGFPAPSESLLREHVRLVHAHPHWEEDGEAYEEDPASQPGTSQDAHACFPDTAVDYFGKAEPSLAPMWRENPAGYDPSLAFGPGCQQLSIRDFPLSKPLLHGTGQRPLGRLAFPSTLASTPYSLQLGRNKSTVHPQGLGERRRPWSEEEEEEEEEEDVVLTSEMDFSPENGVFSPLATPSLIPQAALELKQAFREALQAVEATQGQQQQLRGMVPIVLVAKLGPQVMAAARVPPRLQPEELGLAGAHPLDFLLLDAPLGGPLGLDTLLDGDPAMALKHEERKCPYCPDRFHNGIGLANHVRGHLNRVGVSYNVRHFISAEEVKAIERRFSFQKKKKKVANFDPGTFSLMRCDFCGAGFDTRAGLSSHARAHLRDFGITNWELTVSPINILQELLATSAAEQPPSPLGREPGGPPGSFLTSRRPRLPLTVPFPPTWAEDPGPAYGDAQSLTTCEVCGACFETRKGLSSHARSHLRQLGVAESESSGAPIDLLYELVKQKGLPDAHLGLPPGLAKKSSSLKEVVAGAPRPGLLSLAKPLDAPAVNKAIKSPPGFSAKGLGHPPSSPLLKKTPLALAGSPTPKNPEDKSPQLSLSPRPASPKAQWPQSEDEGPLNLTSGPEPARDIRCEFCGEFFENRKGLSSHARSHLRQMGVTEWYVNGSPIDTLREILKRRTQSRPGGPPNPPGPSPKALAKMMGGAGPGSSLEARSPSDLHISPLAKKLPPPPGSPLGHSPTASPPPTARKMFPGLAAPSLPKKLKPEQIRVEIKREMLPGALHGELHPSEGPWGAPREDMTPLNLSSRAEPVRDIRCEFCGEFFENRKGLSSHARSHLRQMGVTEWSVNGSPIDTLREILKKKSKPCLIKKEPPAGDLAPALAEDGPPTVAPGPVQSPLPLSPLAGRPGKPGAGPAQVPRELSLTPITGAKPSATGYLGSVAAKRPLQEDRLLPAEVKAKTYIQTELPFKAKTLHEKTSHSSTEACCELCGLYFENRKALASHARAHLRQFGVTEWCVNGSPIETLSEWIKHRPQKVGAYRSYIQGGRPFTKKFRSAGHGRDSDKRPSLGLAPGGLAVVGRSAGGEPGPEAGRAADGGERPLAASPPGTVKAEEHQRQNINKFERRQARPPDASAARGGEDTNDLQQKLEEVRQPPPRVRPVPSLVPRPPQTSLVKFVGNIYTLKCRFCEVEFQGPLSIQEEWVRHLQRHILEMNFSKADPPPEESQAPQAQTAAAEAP
HiBit-WIZ fusion protein, sequence (Q96SW2 whole entry, the tested form may be a part): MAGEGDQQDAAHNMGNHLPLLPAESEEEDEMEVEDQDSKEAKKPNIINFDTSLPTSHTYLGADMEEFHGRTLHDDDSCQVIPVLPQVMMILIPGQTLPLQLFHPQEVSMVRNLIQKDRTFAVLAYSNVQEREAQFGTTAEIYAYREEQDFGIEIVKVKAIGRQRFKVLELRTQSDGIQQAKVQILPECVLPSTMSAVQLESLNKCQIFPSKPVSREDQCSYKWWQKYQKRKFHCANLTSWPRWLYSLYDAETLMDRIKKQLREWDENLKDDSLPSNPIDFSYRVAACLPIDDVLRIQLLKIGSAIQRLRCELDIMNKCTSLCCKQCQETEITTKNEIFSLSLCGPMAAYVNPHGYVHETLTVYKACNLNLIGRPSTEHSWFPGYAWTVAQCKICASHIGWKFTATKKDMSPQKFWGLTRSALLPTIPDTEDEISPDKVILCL
HiBit-WIZ fusion protein, sequence (Q16531 whole entry partner, the tested form may be a part): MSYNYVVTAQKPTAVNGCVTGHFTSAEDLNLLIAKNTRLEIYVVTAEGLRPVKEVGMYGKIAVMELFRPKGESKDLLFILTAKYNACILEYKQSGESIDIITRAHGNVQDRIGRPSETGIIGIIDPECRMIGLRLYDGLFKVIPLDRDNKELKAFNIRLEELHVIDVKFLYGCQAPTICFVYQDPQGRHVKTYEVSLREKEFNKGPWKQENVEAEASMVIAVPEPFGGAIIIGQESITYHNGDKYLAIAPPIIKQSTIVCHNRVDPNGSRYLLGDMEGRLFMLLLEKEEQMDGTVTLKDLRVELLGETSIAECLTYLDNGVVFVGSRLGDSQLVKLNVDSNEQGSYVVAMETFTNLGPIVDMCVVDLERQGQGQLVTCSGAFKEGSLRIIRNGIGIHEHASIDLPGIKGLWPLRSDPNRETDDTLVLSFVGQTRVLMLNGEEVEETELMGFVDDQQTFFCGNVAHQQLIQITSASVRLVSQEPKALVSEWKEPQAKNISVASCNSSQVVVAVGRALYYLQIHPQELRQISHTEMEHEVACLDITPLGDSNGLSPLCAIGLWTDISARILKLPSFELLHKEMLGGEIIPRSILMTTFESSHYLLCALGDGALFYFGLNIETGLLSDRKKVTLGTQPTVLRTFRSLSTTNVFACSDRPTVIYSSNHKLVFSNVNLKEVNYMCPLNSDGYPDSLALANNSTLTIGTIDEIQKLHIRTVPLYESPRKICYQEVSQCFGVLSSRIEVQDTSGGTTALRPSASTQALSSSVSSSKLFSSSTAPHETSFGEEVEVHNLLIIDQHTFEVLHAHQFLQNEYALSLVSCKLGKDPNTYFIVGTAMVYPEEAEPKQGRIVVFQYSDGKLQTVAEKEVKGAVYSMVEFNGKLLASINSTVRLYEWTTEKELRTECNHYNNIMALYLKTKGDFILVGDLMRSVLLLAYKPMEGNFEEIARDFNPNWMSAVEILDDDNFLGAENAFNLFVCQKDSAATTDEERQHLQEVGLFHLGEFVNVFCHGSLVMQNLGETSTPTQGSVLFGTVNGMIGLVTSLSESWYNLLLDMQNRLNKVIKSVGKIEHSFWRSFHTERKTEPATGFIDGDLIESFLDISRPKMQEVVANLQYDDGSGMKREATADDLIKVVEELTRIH

Dmax (HiBit-WIZ fusion protein; [2]) [%]	remaining activity at up to 25 µM (HiBit-WIZ fusion protein; [3]) [%]	DC50 (HiBit-WIZ fusion protein; [4]) [nM]	Structure (SMILES)	further results
80.5	19.5	19	O=C1CCC(N2Cc3cc(OC[C@H]4CCCCN4Cc4ccc5ocnc5c4)ccc3C2=O)C(=O)N1 (stereo partly drawn) [Compound I-201, 3-(5-(((R)-1-(benzo[d]oxazol-5-ylmethyl)piperidin-2-yl)methoxy)-1-oxoisoindolin-2-yl)piperidine-2,6-dione]	
58.7	41.3	83	O=C1CCC(N2Cc3cc(OC[C@H]4CCCCN4CC4COC4)ccc3C2=O)C(=O)N1 (stereo partly drawn) [Compound I-202]	
67.5	32.5	0.92	O=C1CCC(N2Cc3cc(OC[C@H]4CCCCN4Cc4ccc(C5CCN(CC6COC6)CC5)cc4)ccc3C2=O)C(=O)N1 (stereo partly drawn) [Compound I-203, 3-(5-(((R)-1-(4-(1-(oxetan-3-ylmethyl)piperidin-4-yl)benzyl)piperidin-2-yl)methoxy)-1-oxoisoindolin-2-yl)piperidine-2,6-dione]	
82.8	17.1	32	O=C1CCC(N2Cc3cc(OC[C@H]4CCCCN4CC4CC4)ccc3C2=O)C(=O)N1 (stereo partly drawn) [Compound I-214, 3-(5-(((R)-1-(cyclopropylmethyl)piperidin-2-yl)methoxy)-1-oxoisoindolin-2-yl)piperidine-2,6-dione]	
0.4	99.6		COC1CCC(CN2CCCCC2C(C)Oc2ccc3c(c2)CN(C2CCC(=O)NC2=O)C3=O)CC1 (stereo not drawn) [Compound I-217, 3-(5-(1-(1-((4-methoxycyclohexyl)methyl)piperidin-2-yl)ethoxy)-1-oxoisoindolin-2-yl)piperidine-2,6-dione]	
82.8	17.1	72	CCN1[C@@H]2CC[C@@H](C2)[C@H]1COc1ccc2c(c1)CN(C1CCC(=O)NC1=O)C2=O (stereo partly drawn) [Compound I-223, 3-(5-(((1R,3S,4S)-2-ethyl-2-azabicyclo[2.2.1]heptan-3-yl)methoxy)-1-oxoisoindolin-2-yl)piperidine-2,6-dione]	
73.5	26.6	2	CC(C)(C)N1CCN(c2ccc(CN3CCCC[C@@H]3COc3ccc4c(c3)CN(C3CCC(=O)NC3=O)C4=O)cc2)CC1 (stereo partly drawn) [Compound I-229, 3-(5-(((R)-1-(4-(4-(tert-butyl)piperazin-1-yl)benzyl)piperidin-2-yl)methoxy)-1-oxoisoindolin-2-yl)piperidine-2,6-dione]	
81.1	18.9	0.73	O=C1CCC(N2Cc3cc(OC[C@H]4CCCCN4Cc4ccc(N5CCN(C6CC6)CC5)cc4)ccc3C2=O)C(=O)N1 (stereo partly drawn) [Compound I-233, 3-(5-(((R)-1-(4-(4-cyclopropylpiperazin-1-yl)benzyl)piperidin-2-yl)methoxy)-1-oxoisoindolin-2-yl)piperidine-2,6-dione]	
78.3	21.7	500	O=C1CCC(N2Cc3cc(OCC4CC(F)(F)CCN4)ccc3C2=O)C(=O)N1 (stereo not drawn) [Compound I-251, 3-(5-((4,4-difluoropiperidin-2-yl)methoxy)-1-oxoisoindolin-2-yl)piperidine-2,6-dione]	

Further lines, the molecule ahead of its results:

Structure (SMILES)	Dmax (HiBit-WIZ fusion protein; [2]) [%]	remaining activity at up to 25 µM (HiBit-WIZ fusion protein; [3]) [%]	DC50 (HiBit-WIZ fusion protein; [4]) [nM]	further results
O=C1CCC(N2Cc3cc(OC[C@H]4CCCCN4Cc4ccc(N5CCOCC5)nc4)ccc3C2=O)C(=O)N1 (stereo partly drawn) [Compound I-186, 3-(5-(((R)-1-((6-morpholinopyridin-3-yl)methyl)piperidin-2-yl)methoxy)-1-oxoisoindolin-2-yl)piperidine-2,6-dione]	80.8	19.1	4.3	
O=C1CCC(N2Cc3cc(OC[C@H]4CCCCN4Cc4ccc(C5=CCOCC5)cc4)ccc3C2=O)C(=O)N1 (stereo partly drawn) [Compound I-188, 3-(5-(((R)-1-(4-(3,6-dihydro-2H-pyran-4-yl)benzyl)piperidin-2-yl)methoxy)-1-oxoisoindolin-2-yl)piperidine-2,6-dione]	86.6	13.4	0.35	
CC(C)(C)OC(=O)N1CCN(c2ccc(CN3CCCC[C@@H]3COc3ccc4c(c3)CN(C3CCC(=O)NC3=O)C4=O)cn2)CC1 (stereo partly drawn) [Compound I-189, Tert-butyl 4-(5-(((2R)-2-(((2-(2,6-dioxopiperidin-3-yl)-1-oxoisoindolin-5-yl)oxy)methyl)piperidin-1-yl)methyl)pyridin-2-yl)piperazine-1-carboxylate]	73.2	26.8	4.3	
CCN1CCN(c2ccc(CN3CCCC[C@@H]3COc3ccc4c(c3)CN(C3CCC(=O)NC3=O)C4=O)cn2)CC1 (stereo partly drawn) [Compound I-191, 3-(5-(((R)-1-((6-(4-ethylpiperazin-1-yl)pyridin-3-yl)methyl)piperidin-2-yl)methoxy)-1-oxoisoindolin-2-yl)piperidine-2,6-dione]	67.2	32.9	150	
COc1cc(CN2CCCC[C@@H]2COc2ccc3c(c2)CN(C2CCC(=O)NC2=O)C3=O)ccc1C#N (stereo partly drawn) [Compound I-192]	62.2	37.8	25	
O=C1CCC(N2Cc3cc(OC[C@H]4CCCCN4Cc4ccc5[nH]cnc5c4)ccc3C2=O)C(=O)N1 (stereo partly drawn) [Compound I-193]	55.7	44.3	490	
COc1ccc(CN2CCCC[C@@H]2COc2ccc3c(c2)CN(C2CCC(=O)NC2=O)C3=O)cc1C#N (stereo partly drawn) [Compound I-196, 5-(((2R)-2-(((2-(2,6-dioxopiperidin-3-yl)-1-oxoisoindolin-5-yl)oxy)methyl)piperidin-1-yl)methyl)-2-methoxybenzonitrile]	78.8	21.2	4.2	
O=C1CCC(N2Cc3cc(OC[C@H]4CCCCN4Cc4ccc(C5CCN(CC6CCOCC6)CC5)cc4)ccc3C2=O)C(=O)N1 (stereo partly drawn) [Compound I-197, 3-(1-oxo-5-(((R)-1-(4-(1-((tetrahydro-2H-pyran-4-yl)methyl)piperidin-4-yl)benzyl)piperidin-2-yl)methoxy)isoindolin-2-yl)piperidine-2,6-dione]	51.8	48.2	56	
O=C1CCC(N2Cc3cc(OC[C@H]4CCCCN4Cc4ccc(C5CCN(CCF)CC5)cc4)ccc3C2=O)C(=O)N1 (stereo partly drawn) [Compound I-198, 3-(5-(((R)-1-(4-(1-(2-fluoroethyl)piperidin-4-yl)benzyl)piperidin-2-yl)methoxy)-1-oxoisoindolin-2-yl)piperidine-2,6-dione]	68	32	13	
CC(C)N1CCN(c2ccc(CN3CCCC[C@@H]3COc3ccc4c(c3)CN(C3CCC(=O)NC3=O)C4=O)cc2)CC1 (stereo partly drawn) [Compound I-227, 3-(5-(((R)-1-(4-(4-isopropylpiperazin-1-yl)benzyl)piperidin-2-yl)methoxy)-1-oxoisoindolin-2-yl)piperidine-2,6-dione]			58	Dmax (HiBit-WIZ fusion protein; HEK-293T, read-out: % degradation of WIZ (100-Amax), 100 minus Amax, 293T cells): 64.2%; remaining activity (HiBit-WIZ fusion protein; HEK-293T, read-out: WIZ Amax, DMSO-normalized, curve-fitted percentage of WIZ-HiBit remaining at 25 uM, 293T cells): 35.8%
NC(=O)NO [Hydroxyurea]				response rate [1]: less than 40%
O=C1CCC(N2Cc3cc(OC[C@H]4CCCCN4CC4CC(O)C4)ccc3C2=O)C(=O)N1 (stereo partly drawn) [I-141a, I-141b, 3-(5-(((R)-1-(((1r,3R)-3-hydroxycyclobutyl)methyl)piperidin-2-yl)methoxy)-1-oxoisoindolin-2-yl)piperidine-2,6-dione and 3-(5-(((R)-1-(((1s,3S)-3-hydroxycyclobutyl)methyl)piperidin-2-yl)methoxy)-1-oxoisoindolin-2-yl)piperidine-2,6-dione]				% degradation of WIZ (100-Amax) (HiBit-WIZ fusion protein; 100 minus Amax, at 25 uM, 293T cells): 72.36%; WIZ Amax (HiBit-WIZ fusion protein; DMSO-normalized, curve-fitted percentage of WIZ-HiBit remaining at 25 uM, 293T cells): 27.64%; AC50 (HiBit-WIZ fusion protein; [4]): 2460 nM
